Results taken from patent US12496302B2, “Compositions and methods for the treatment and diagnosis of cancer” (The General Hospital Corporation, priority 2020, dated 2025).

Assays:
Type in all cases: cell-based
γ-H2AX foci = γ-H2AX foci clearance after damage; details: 2.5 μM/L YW-1842
Procedure: FIGS. 6F-6G show TRDMT1 inhibitor YW-1842 delays the repair of DSBs at the transcribed genome. (FIG. 6F) U2OS or MCF7 cells were treated with or without compound YW-1842 at the indicated concentration. The survival rate of these cells was shown (n=3, Mean±SD). (FIG. 6G) SCE WT cells were transfected with TA-KR and were cultured with 2.5 μM YW-1842 or not for 6 hours, γ-H2AX (n=3, 50 cells per replicated, Mean±SD) were stained and quantified.
Cells for immunofluorescence observation were fixed in 4% PFA (Affymetrix, 19943 1 LT) at room temperature for 15 min and further treated with 0.2% triton for 10 min. They were then blocked by 3% BSA (SIGMA, A-7030) at room temperature for 1 h. Primary antibody for RAD51 (ab63801, Abcam, 1:200)), RAD52 (sc-365341, Santa Cruz, CA, USA, 1:500), TRIM28 (ab10484, Abcam, 1:500), γH2AX ser139 (JBW301, 05-636, EMD Millipore, 1:200), were incubated with cells at 4° C. overnight. After washing with 0.05% PBS-Tween (PBST), the cells were incubated with secondary antibody for 1 h at room temperature.

U2OS (DR-GFP) cells = assay: DR-GFP HR reporter assay; details: 2.5 μM/L for 6 h, in comparison with DMSO treated group
Procedure: (§1) FIGS. 6A-6E show TRDMT1 Inhibitors specifically sensitizes cells to DNA damage agents. (FIG. 6A) SCE WT cells were transfected with TA-KR and were cultured with 2.5 μM/L, compound YW-1842 or not for 6 hours, m^5C (n=3, 50 cells per replicated, Mean±SD) was stained and quantified. DR-GFP (FIG. 6B) or EJ5-GFP (FIG. 6C) cells were pre-treated with 2.5 μM/L, compound YW-1842 for 6 h or TRDMT1 siRNA for 48 h, or DMSO. Then the cells were transfected with NLS-I-SceI plasmid to induce DSB. The efficiency of HR (FIG. 6B) or NHEJ (FIG. 6C) was analyzed by flow-cytometry (n=3, Mean±SD). (FIG. 6D) After seeding, MCF-7, HCC1954, and HCC1937 cells were pre-treated with or without 2.5 μM/L compound YW-1842 for 6 h, then cultured with chemotherapy drugs (1 μM/L, Cisplatin; 1 μM/L ATRi AZ20; 10 μM/L, ATMi KU55933; 1 μM/L, PARPi Olaparib for 10 days. The survival rate of these cells was analyzed (n=3, Mean±SD). (FIG. 6E) TRDMT1 KO U2OS cells were transfected with GFP-TRDMT1^WT or GFP-TRDMT1^G155V with or without 2.5 μM/L, compound YW-1842, the survival rate of these cells after IR or Cisplatin was shown (n=3, Mean±SD).
(§2) Using a previously described method[Lan, L. et al. The ACF1 complex is required for DNA double-strand break repair in human cells. […] The GFP signal arising from the recombination (HR) or non-homologous end joining (NHEJ) events were measured by flow cytometry.

U2OS (EJ5-GFP) cells = assay: EJ5-GFP NHEJ reporter assay; details: 2.5 μM/L for 6 h, TRDMT1 wild type cells
Procedure: as §1, §2

[1] = test system: MCF-7, HCC1954, and HCC1937 cells; assay: Cell survival assay, YW-1842 combined with DNA damaging agents, IR or H2O2
Procedure: as §1
MCF-7, HCC1954, and HCC1937 cells were pre-treated with or without TRDMT1 inhibitor YW-1842 (2.5 μM) for 6 hrs, then the cells were exposed to IR or H2O2, and cultured for 7-14 days. The survival rate of these cells was analyzed (n=3, Mean±SD)
Approximately 500 U2OS/TRDMT1 KO U2OS/MCF-7/HCC1954/HCC1937 cells and TRDMT1 siRNA or GFP-TRDMT1 WT/G155V/K251R transfected cells were seeded in 6 cm dish with or without TRDMT1 inhibitors (2.5 μM/L). 6 hrs after seeding, cells were exposed to cisplatin (1134357, Sigma, 1 μM/L), ATMi (KU55933, C9867, Sigma, 10 μM/L), ATRi (AZ20, S7050, Selleck, 1 μM/L) or PARPi (Olaparib, AZD2461, Sigma, 1 μM/L) at indicated concentration or ionizing radiation (IR). After 7-14 days, colonies were fixed and stained with 0.3% crystal violet in methanol, and the number of colonies was counted manually.

TRDMT1 KO U2OS cells = assay: Cell survival after IR or Cisplatin in TRDMT1 KO U2OS cells with or without YW-1842; details: 2.5 μM/L
Procedure: as §1
Approximately 500 U2OS/TRDMT1 KO U2OS/MCF-7/HCC1954/HCC1937 cells and TRDMT1 siRNA or GFP-TRDMT1 WT/G155V/K251R transfected cells were seeded in 6 cm dish with or without TRDMT1 inhibitors (2.5 μM/L). […]

COc1cc2nc(-n3cc(-c4ccc(S(C)(=O)=O)cc4)cn3)nc(-c3ccsc3)c2cc1OC [YW-1842, 6,7-dimethoxy-2-(4-(4-(methylsulfonyl)phenyl)-1H-pyrazol-1-yl)-4-(thiophen-3-yl)quinazoline]
DNA repair efficiency (clearance of γ-H2AX foci after IR) (γ-H2AX foci): delayed clearance of γ-H2AX foci
HR-mediated repair of I-SceI-generated DSBs (U2OS (DR-GFP) cells): diminished the repair of I-SceI-generated DSBs
non-homologous end joining (NHEJ) efficiency (U2OS (EJ5-GFP) cells): no obvious changes
survival rate in combination with H2O2 compared to DMSO ([1]; 2.5 μM, combined with H2O2): decreased the survival rate of all the three cell lines
sensitivity to IR in combination ([1]; 2.5 μM, combined with IR): clear sensitivity enhancement
sensitization to DNA damaging agents (Cisplatin, ATRi AZ20, ATMi KU55933, PARPi Olaparib) compared to single treatment ([1]; 2.5 μM/L pre-treatment 6 h): sensitizes the cells
synergy with PARPi Olaparib ([1]; YW-1842 2.5 μM, Olaparib 1 μM, HCC 1954 cell lines): strong synergy
sensitization of TRDMT1 KO cells to IR or Cisplatin (TRDMT1 KO U2OS cells): does not sensitize TRDMT1 KO
